Laboratory results from publication PMC9738107, “Targeting of the ELR+CXCL/CXCR1/2 Pathway Is a Relevant Strategy for the Treatment of Paediatric Medulloblastomas” (Cells, 2022).

How the values were obtained:
[1] = system: Primary mouse astrocytes (C8D1A); assay: IC50 on normal cells (XTT / cell death by PI staining); assay type: cell-based; details: C8-D1A, 48 h of treatment
Source text: We then determined the selectivity index (SI), which is the IC50 value for normal cells divided by the IC50 value for tumour cells, to assess the overall toxicity on normal tissues. These IC50 values determined by XTT assays or measurement of cell death by PI staining were nearly equivalent (Figure 3E,F). Primary mouse astrocytes (C8D1A) were selected based on their nervous system lineage. […] The SI was thus 6.44 for Daoy, 2.84 for ONS-76, 10.7 for HD-MB03, and 3.94 for D341Med, indicating selectivity towards tumour cell death at the doses considered. These values are also consistent with those determined for renal cancer cells. […]
(§1) 1500 Daoy, ONS ‐76, HD ‐MB03 or D341 Med cells were sown in triplicate in plates with six wells and the cells were counted daily for 8 days using a Coulter counter (Ville‐ pinte). The relative number of cells (compared to day 1) was determined daily. […]
(§2) Y = Y0 * exp(k * X) (Y= Cell number at day X; Y0= Cell number at day 0 (graphically calculated); X= Day following cell plating (cells plated at X0=0); k= Exponential growth constant rate. Doubling times were compared.
(§3) 150 Daoy/DR1/DR2/ ONS ‐ 76 and 300 HD ‐ MB03/HR1/HR2 cells were seeded in trip‐ licate in 6‐well plates in the presence or absence of treatment (1 or 2∙5μM MCK140 or DMSO as control). […] The number of clones was quantified using ImageJ software. […]

[2] = system: Daoy cells; assay: Pseudo-vessel formation on Matrigel; assay type: cell-based, human
Method: (§4) Figure 6 C29 inhibits the formation of pseudo vessel structures. (A) Formation of pseudo-vessels by Daoy cells, ONS-76, and HD-MB03 cultured on Matrigel and treated with Control (DMSO) or C29 (1 or 2.5 µM); n = 3. (B) Number of meshes (geometric units of the net formed by the cells on the matrigel surface) were counted with ImageJ. Statistics were performed using Student t-test for only 2 comparisons or ANOVA test for multiple comparisons. *** p < 0.001, scale = 500 μm. […]
(§5) Pseudo‐vessels formation assays
(§6) The cells were deprived of serum overnight. They were then seeded (75000 Daoy
(§7) with Matrigel Matrix, hESC‐Qualified (VWR). Plates were then incubated at 37 °C, 5%
(§8) CO2 for 24 hours. Representative images were taken with the Evos XL Core Cell Imaging
(§9) System at low magnification (4X). For each image, we determined the number of meshes
(§10) (number of geometric units of the net formed by the cells seeded on the matrigel surface). […]

[3] = system: HD-MB03 cells; assay: Pseudo-vessel formation on Matrigel; assay type: cell-based, human; details: HD-MB03, 1 µM
Method: as §4, §5, §6, §7, §8, §9, §10

[4] = system: ONS-76 cells; assay: Pseudo-vessel formation on Matrigel; assay type: cell-based, human
Method: as §4, §5, §6, §7, §8, §9, §10

[5] = system: DR1/DR2 and HR1/HR2 radio-resistant cells; assay: Cell proliferation assay (cell counting), radiation-resistant cells; assay type: cell-based, human; details: 1 µM
Method: Figure 8 C29 is efficient on radioresistant MB cell lines. (A) Cell death after 48 h of treatment with control (DMSO, CT) or C29 1, 2.5, or 5 µM on radiation-resistant cells (RR) and normal cells (N), n = 3. Statistics were performed using the one-way method ANOVA. * p < 0.05, ** p < 0.01, *** p < 0.001. For this figure, DR1 = D1, DR2 = D2, HR1 = H1, HR2 = H2, and C8D1A = C8. (B) Proliferation of DR1/DR2 (A) and HR1/HR2 (B) radio-resistant cells after 1 µM C29 treatment or control (DMSO), n = 3. (C) Clonogenic assay on DR1, DR2 (n = 3) and HR1, HR2 (n = 3) cells after treatment with control (DMSO) or C29 (1 µM or 2.5 µM). […] Results are expressed as percentage of control (n = 3). […]
as §1, §2, §3

In the case of `O=C(Nc1cccc(Cl)c1)Nc1nc2ccc([N+](=O)[O-])cc2s1` [C29, 1-(3-chlorophenyl)-3-(6-nitrobenzo[d]thiazol-2-yl) urea], the IC50 [1] is reported as 19.3 µM, the Pseudo-vasculature formation ([2]; 1 µM) is reported as “inhibited this ability” and the Pseudo-vasculature formation ([2]; 2.5 µM) is reported as “inhibited this ability”. For the same compound, the “Number of meshes (pseudo-vessels)” value [3] was “significantly reduced the number of meshes”, the Pseudo-vasculature formation ([4]; ONS-76, 1 µM) was “some vascular structures were retained” and the Pseudo-vasculature formation ([4]; ONS-76, 2.5 µM) was “completely lost this ability”. The Proliferation [5] was “reduce proliferation”.
